Results on one molecule are retold here after PMC4210147, “Sequence-Specific Dimerization of a Transmembrane Helix in Amphipol A8-35” (PLoS ONE, 2014).

Molecules are shown by their SMILES.

Series [1] can be described thus: Far-UV circular dichroism, secondary structure content of GpA TM domain. It is filed as physicochemical. Particulars: 25°C; for α-helix content: unlabeled GpA peptide 5 µM, DICHROWEB CDSSTR, reference set 7, at least three averaged scans. Here is the method:
CD spectra were recorded on a Jasco J-815 spectropolarimeter at 25°C in a step-scan mode using 0.1-cm path length quartz cells from Hellma (Mülheim, Germany). The concentration of unlabeled GpA peptide was 5 µM. Data points were collected at a resolution of 1 nm, an integration time of 1 s, and a bandwidth of 1 nm. Each shown spectrum results from at least three averaged scans from which buffer scans were subtracted. The measured ellipticity θ was converted to molar ellipticity [θ] by: [drawing 8] (5) where M is the molar mass, L the path length, and C the peptide concentration.
The GpA TM domain was reconstituted in 10 mM phosphate buffer (pH 7.4) containing A8-35 as well as in several solvents containing SDS, DDM, or pure TFE, which are known to stabilize α-helical structures. Prior to CD measurements, samples were treated in the same way as described above for FRET measurements. Secondary structure contents were estimated with the DICHROWEB software, [31] using both soluble and TM proteins as reference datasets (CDSSTR method, reference set 7).

The target of series [2] is T1, human GpA TM domain (Homo sapiens, UniProt P02724).
T1 construct: purchased Peptide Specialty Laboratories, Heidelberg, Germany; host or cells: chemical synthesis (custom peptide)
T1 sequence (P02724 88-120 limits assumed) 1: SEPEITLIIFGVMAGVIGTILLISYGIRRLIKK
T1 sequence (P02724 88-120 limits assumed) 2: T1 sequence (P02724 88-120 limits assumed) 1
Kind of series: Steady-state FRET, GpA TM helix dimer dissociation upon addition of SDS (mixed A8-35/SDS aggregates). It is filed as binding. On the procedure: (§1) For Förster resonance energy transfer (FRET) measurements, equal concentrations of FL- and TAMRA-labeled GpA TM domains were used. Concentrations of the peptide stock solutions were determined from absorbance measurements on a Perkin Elmer Lambda 35 UV/VIS spectrophotometer. In all experiments, we used 0.25 µM for each of the two labeled GpA peptides. Peptides dissolved in TFE and A8-35 dissolved in ethanol were mixed, and organic solvents were removed under a gentle stream of nitrogen gas. Residual solvent traces were removed by vacuum desiccation overnight. The dried peptide/polymer film was then hydrated in 10 mM HEPES buffer (pH 7.4) containing 150 mM NaCl.
After at least 2 h of incubation at 37°C and 10 min of centrifugation at 16,000 g, steady-state fluorescence measurements were performed with the supernatant at 25°C on a Horiba Fluoromax 4 system with both excitation and emission slits at 3 nm. The excitation wavelength was set at 439 nm, and emission spectra were recorded from 480 to 650 nm. For FRET measurements with SDS, several concentrations of SDS, both below and above the CMC determined for the given buffer conditions, were used, and hydrated samples were incubated overnight.
Energy transfer E was calculated using the donor fluorescence intensities at 525 nm in presence and absence of acceptor according to [drawing 1] (1)
FD is the fluorescence intensity of the donor sample, and FDA is the fluorescence intensity of the sample containing donor and acceptor GpA TM domains at equal concentrations. The energy transfer of sequence-specific TM helix dimerization, ED, can be expressed as: [drawing 2] (2) where f D is the fraction of dimeric TM helices, P D is the probability of donor quenching when the peptides form a dimer, and E R is the energy transfer in the dimer.
The probability P D of donor quenching depends on the molar ratio of the acceptor peptides [drawing 3] , where [a] and [d] are the concentrations of acceptor and donor peptides, respectively. If the distance of the fluorophores in the dimer is much smaller than the Förster radius, as is the case here, ER can be taken as unity.
The fraction of dimers can be written as [drawing 4] , where [D] is the concentration of dimeric peptides and [T] the total peptide concentration.
The dissociation constant, K D, is given by [drawing 6] (4) where the monomer concentration is [drawing 7] .
This indicates a strong destabilization of the GpA dimer after addition of SDS, resulting in dissociation of GpA TM dimers in mixed A8-35/SDS aggregates. […]
Figure 6 Dissociation of the GpA TM domain in APol upon addition of SDS. […] SDS was added to preformed APol/GpA complexes, and emission spectra were recorded at 25°C after incubation at 37°C. […]

Series [3] has as its target T1, human GpA TM domain. Description: Reversibility of SDS-mediated GpA dimer dissociation, FRET after dilution of SDS. It counts as binding. The following applies: n = 3. On the procedure:
as §1
After at least 2 h of incubation at 37°C and 10 min of centrifugation at 16,000 g, steady-state fluorescence measurements were performed with the supernatant at 25°C on a Horiba Fluoromax 4 system with both excitation and emission slits at 3 nm. The excitation wavelength was set at 439 nm, and emission spectra were recorded from 480 to 650 nm. For FRET measurements with SDS, several concentrations of SDS, both below and above the CMC determined for the given buffer conditions, were used, and hydrated samples were incubated overnight. […]

As for `CC[C@H](C)[C@H](NC(=O)CNC(=O)[C@H](Cc1ccc(O)cc1)NC(=O)[C@H](CO)NC(=O)[C@@H](NC(=O)[C@H](CC(C)C)NC(=O)[C@H](CC(C)C)NC(=O)[C@@H](NC(=O)[C@@H](NC(=O)CNC(=O)[C@@H](NC(=O)[C@@H](NC(=O)CNC(=O)[C@H](C)NC(=O)[C@H](CCSC)NC(=O)[C@@H](NC(=O)CNC(=O)[C@H](Cc1ccccc1)NC(=O)[C@@H](NC(=O)[C@@H](NC(=O)[C@H](CC(C)C)NC(=O)[C@@H](NC(=O)[C@@H](NC(=O)[C@H](CCC(=O)O)NC(=O)[C@@H]1CCCN1C(=O)[C@H](CCC(=O)O)NC(=O)[C@@H](N)CO)[C@@H](C)CC)[C@@H](C)O)[C@@H](C)CC)[C@@H](C)CC)C(C)C)C(C)C)[C@@H](C)CC)[C@@H](C)O)[C@@H](C)CC)[C@@H](C)CC)C(=O)N[C@@H](CCCNC(=N)N)C(=O)N[C@@H](CCCNC(=N)N)C(=O)N[C@@H](CC(C)C)C(=O)N[C@H](C(=O)N[C@@H](CCCCN)C(=O)N[C@@H](CCCCN)C(=O)O)[C@@H](C)CC` [GpA TM domain], the α-helix content in series [1] (5 µM A8-35, 10 mM phosphate buffer pH 7.4) is on record as 67%; in series [1] (in 5 mM DDM), 79%; in series [1] (in 5 mM SDS), 76%; in series [1] (in TFE (pure)), 62%. In addition, in series [1] (A8-35 concentrations above 5 µM, CD, 5 µM peptide), the “effect of higher APol concentrations on peptide's secondary structure” value is on record as “did not significantly affect the peptide's secondary structure”. In addition, on human GpA TM domain [2] (20 µM A8-35 with SDS, analyzed concentration range, compared with DDM/SDS), the “complete unfolding of GpA dimer in APol/SDS mixed micelles” value is listed as “not observed in case of APol/SDS mixed micelles”. Further, the “fraction of dimeric GpA” value is given as “about 0.3” on human GpA TM domain [2] (SDS exceeding 1.5 mM, 20 µM A8-35, 0.5 µM labeled GpA TM domain, 25°C, n = 3) and 0.7 on human GpA TM domain [2] (no SDS, 20 µM A8-35, 0.5 µM labeled GpA TM domain, 25°C, n = 3). The “increase in the dissociation constant upon SDS addition” value on human GpA TM domain [2] (no SDS vs SDS exceeding 1.5 mM, 20 µM A8-35, 0.5 µM labeled GpA TM domain, 25°C, n = 3) was “about one order of magnitude”. The “reversibility of dissociation and association of GpA TM helix” value at human GpA TM domain [3] (2 mM SDS diluted to 0.4 mM SDS, constant 20 µM A8-35 and peptide) was “fully reversible”. The “fraction dimer after dilution from higher SDS concentration” value at human GpA TM domain [3] (2 mM SDS sample diluted to 0.4 mM SDS, 20 µM A8-35) was “comparable to that observed at 0.4 mM SDS”.
